Each block holds one molecule with its values, some of them ahead of it.
Key:
[1] = biological target: T1, Tyrosine-protein phosphatase non-receptor type 2 (Homo sapiens, UniProt P17706); assay: Inhibition of TCPTP
T1 sequence (P17706 whole entry): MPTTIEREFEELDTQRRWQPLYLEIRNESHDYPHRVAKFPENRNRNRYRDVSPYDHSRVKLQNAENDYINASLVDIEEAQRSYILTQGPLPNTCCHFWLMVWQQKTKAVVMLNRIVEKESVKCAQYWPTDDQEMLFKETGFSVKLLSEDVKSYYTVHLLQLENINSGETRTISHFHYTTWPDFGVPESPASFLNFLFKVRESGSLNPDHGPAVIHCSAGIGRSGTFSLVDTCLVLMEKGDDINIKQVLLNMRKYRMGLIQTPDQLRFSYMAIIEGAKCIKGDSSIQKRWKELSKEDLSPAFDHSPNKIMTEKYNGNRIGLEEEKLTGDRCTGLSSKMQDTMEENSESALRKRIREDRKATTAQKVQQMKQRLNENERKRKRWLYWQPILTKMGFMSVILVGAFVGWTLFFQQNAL

[2] = biological target: T2, Tyrosine-protein phosphatase non-receptor type 1 (Homo sapiens, UniProt P18031); assay: Inhibition of PTP1B
T2 sequence (P18031 whole entry): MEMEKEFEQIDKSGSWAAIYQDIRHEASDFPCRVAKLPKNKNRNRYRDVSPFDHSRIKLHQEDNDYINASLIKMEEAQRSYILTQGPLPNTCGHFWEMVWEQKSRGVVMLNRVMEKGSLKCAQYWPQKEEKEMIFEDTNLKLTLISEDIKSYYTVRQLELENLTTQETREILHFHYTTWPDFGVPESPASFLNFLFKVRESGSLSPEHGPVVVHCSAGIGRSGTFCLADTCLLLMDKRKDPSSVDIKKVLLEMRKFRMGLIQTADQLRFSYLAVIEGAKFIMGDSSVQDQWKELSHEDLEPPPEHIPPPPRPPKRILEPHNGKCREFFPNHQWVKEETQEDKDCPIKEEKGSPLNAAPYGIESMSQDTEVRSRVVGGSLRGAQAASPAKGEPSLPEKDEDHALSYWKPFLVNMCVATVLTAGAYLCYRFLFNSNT

[3] = Selectivity ratio of IC50 for TCPTP to IC50 for PTP1B
[4] = Permeability across human Caco-2 cell membrane; assay type: ADME, cell-based; details: read-out: permeability
[5] = Selectivity ratio of Ki for TCPTP to Ki for PTP1B
[6] = biological target: T2, Tyrosine-protein phosphatase non-receptor type 1; assay: Inhibition of PTP1B by competitive inhibition assay
[7] = biological target: Receptor-type tyrosine-protein phosphatase beta (Homo sapiens, UniProt P23467); assay: Inhibition of human protein-tyrosine phosphatase beta
[8] = system: C2C12; assay: Augmentation of insulin-stimulated 2-deoxy-D-glucose uptake in mouse C2C12 cells at 100 uM; assay type: functional

Receptor-type tyrosine-protein phosphatase beta, sequence (P23467 whole entry): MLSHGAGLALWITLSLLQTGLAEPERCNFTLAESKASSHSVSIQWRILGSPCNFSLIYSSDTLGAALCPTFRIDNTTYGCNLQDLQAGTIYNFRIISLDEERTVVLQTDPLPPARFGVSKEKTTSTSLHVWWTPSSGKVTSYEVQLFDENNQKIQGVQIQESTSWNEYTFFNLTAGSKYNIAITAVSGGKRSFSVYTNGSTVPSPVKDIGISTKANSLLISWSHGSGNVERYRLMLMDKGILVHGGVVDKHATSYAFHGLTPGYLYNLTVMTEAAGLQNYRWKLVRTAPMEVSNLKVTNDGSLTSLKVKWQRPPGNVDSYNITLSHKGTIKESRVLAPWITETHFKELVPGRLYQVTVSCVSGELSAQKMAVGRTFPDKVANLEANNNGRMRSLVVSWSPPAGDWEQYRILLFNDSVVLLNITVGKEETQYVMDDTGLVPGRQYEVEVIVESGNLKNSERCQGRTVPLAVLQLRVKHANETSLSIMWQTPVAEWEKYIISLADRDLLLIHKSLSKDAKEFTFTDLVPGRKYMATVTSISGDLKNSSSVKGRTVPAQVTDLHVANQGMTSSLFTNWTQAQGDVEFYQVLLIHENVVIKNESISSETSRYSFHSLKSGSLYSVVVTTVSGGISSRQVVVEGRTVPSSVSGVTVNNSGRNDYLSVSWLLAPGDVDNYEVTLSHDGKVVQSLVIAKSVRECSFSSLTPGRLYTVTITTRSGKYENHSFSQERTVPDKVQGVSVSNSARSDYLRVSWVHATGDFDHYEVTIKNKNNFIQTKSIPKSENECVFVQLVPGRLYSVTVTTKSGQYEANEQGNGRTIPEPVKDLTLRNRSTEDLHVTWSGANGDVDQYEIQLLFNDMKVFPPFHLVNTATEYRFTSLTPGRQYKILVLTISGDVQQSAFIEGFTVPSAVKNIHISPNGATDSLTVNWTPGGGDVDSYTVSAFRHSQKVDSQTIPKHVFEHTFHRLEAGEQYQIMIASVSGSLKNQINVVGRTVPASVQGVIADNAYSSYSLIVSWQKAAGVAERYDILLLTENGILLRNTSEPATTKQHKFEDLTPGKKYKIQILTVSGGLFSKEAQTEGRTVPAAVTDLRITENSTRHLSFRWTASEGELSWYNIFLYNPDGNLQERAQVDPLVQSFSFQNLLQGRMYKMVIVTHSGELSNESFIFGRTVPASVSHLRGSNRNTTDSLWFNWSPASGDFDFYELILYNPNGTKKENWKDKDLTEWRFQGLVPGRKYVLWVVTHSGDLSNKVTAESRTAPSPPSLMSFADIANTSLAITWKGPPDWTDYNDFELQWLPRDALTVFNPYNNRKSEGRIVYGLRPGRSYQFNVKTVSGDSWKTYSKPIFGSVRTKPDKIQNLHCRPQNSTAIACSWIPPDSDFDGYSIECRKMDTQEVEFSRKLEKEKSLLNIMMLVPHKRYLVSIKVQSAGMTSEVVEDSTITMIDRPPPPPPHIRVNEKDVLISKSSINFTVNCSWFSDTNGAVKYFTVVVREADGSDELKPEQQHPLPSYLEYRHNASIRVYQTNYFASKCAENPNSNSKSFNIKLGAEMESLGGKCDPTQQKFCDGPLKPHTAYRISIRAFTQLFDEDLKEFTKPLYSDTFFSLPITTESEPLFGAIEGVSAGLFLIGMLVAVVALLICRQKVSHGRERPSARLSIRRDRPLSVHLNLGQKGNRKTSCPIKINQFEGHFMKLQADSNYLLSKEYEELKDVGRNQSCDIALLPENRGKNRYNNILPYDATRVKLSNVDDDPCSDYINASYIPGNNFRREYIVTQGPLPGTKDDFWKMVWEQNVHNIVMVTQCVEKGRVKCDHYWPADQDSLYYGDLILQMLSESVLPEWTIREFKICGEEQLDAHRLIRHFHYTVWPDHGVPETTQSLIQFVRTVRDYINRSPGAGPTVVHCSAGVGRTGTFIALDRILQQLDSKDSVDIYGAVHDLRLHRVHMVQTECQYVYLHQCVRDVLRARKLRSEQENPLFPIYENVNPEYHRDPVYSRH

Structure (SMILES): CS(=O)(=O)OC1C(Cl)CCCC1Cc1ccc(N2CC(=O)CS2(=O)=O)c(O)c1 (centres undefined)
IC50 [2]: 12.6 nM

Structure (SMILES): COC(=O)c1c(O)cccc1OCCCCNC(=O)[C@H](Cc1ccc(OCC(=O)O)c(O)c1)NC(C)=O
Papp [4]: > 10 ×10⁻⁶ cm/s | Ratio Ki [5]: 20

Structure (SMILES): O=C1CN(c2c(O)cc(CC3CCCCC3)cc2F)S(=O)(=O)C1
IC50 [2]: 14 nM

Structure (SMILES): COC(=O)c1c(O)cccc1OC/C=C/c1cccc(-c2onc(C(=O)O)c2N)c1
IC50 [1]: > 30000 nM

Structure (SMILES): COC(=O)c1c(O)cccc1OCCCCNC(=O)[C@H](Cc1ccc(OC(C(=O)O)C(=O)NC2CC2)cc1)NC(=O)OC(C)(C)C (some centres undefined)
Ki [1]: > 200000 nM | Ki [2]: 8400 nM | Ratio Ki [5]: > 23

Structure (SMILES): O=C1C[C@@H](c2ccc(C[C@H](Nc3nc4ccccc4s3)c3nc4ccccc4[nH]3)cc2F)S(=O)(=O)N1
IC50 [1]: 250 nM

Structure (SMILES): Cc1cc(C[C@H](NS(=O)(=O)c2ccccc2)c2nc3ccccc3[nH]2)ccc1N1CC(=O)NS1(=O)=O
IC50 [1]: 150 nM

Structure (SMILES): COc1cc(/C=C2\SC(=S)N(c3cccc(Cl)c3)C2=O)cc([N+](=O)[O-])c1O
Ratio IC50 [3]: 1.3 | Ki [6]: 1800 nM

Structure (SMILES): Cc1sc(-c2cccc(NC3CCN(S(=O)(=O)Cc4ccccc4)CC3)c2)cc1C1CC(=O)NS1(=O)=O (centres undefined)
Ki [2]: 4300 nM

Structure (SMILES): CCc1csc([C@H](Cc2ccc(NS(=O)(=O)O)cc2)NC(=O)[C@H](CC(C)C)C(=O)OC)n1
IC50 [7]: 0.3 nM | IC50 [2]: 70 nM

Structure (SMILES): COc1ccc2cc(O)c(N3CC(=O)NS3(=O)=O)cc2c1
IC50 [2]: < 30 nM

Structure (SMILES): O=C(O)C(=O)Nc1sc2c(c1C(=O)O)CCN[C@H]2CNC(=O)c1cc2cc(F)ccc2[nH]1
Activity [8]: 70% | Papp [4]: < 1 ×10⁻⁶ cm/s

Continued, values first:

IC50 [1]: 120 nM
Structure (SMILES): N#Cc1ccc2cc(Br)c(C(F)(F)P(=O)(O)O)cc2c1

IC50 [2]: 8000 nM
Structure (SMILES): O=S(=O)(O)C(F)(F)c1cccc(-c2ccc(-c3ccccc3)cc2)c1

Ratio IC50 [3]: 1.9
Structure (SMILES): CNC(=O)[C@@H]1Cc2ccc(NS(=O)(=O)O)cc2CN1C(=O)CCc1cccc(NS(=O)(=O)O)c1

IC50 [2]: 16 nM
Structure (SMILES): CCC(CC)c1ccc(N(Cc2cccc(-c3ccc(COc4ccc(C[C@H](NC(C)=O)C(=O)O)cc4)cc3)c2)C(C)C)cc1

IC50 [2]: 3200 nM
Structure (SMILES): Cc1nc(-c2ccc(Cl)cc2)sc1CCc1cccc(C(O)(C(=O)O)C(F)(F)F)c1 (centres undefined)

Ratio IC50 [3]: 1 | IC50 [1]: 28 nM
Structure (SMILES): CN(C)S(=O)(=O)c1ccc(CN(Cc2ccc(C(F)(F)P(=O)(O)O)c(Br)c2)S(=O)(=O)c2ccc(OCC(=O)O)cc2)cc1

Ratio IC50 [3]: 1 | IC50 [1]: 25 nM | IC50 [2]: 23 nM
Structure (SMILES): Cc1cc(CC(NS(=O)(=O)c2cccc(F)c2)C2=N[C@H](CCOc3ccccc3S(C)(=O)=O)CN2)ccc1C1CC(=O)NS1(=O)=O (some centres undefined)

IC50 [2]: 600 nM
Structure (SMILES): Cc1ccccc1S(=O)(=O)N(Cc1ccc(C(=O)C(F)(F)P(=O)(O)O)cc1)Cc1ccc(C(=O)C(F)(F)P(=O)(O)O)cc1

IC50 [1]: 25 nM
Structure (SMILES): Cc1cc(C[C@H](NS(=O)(=O)c2ccccc2)c2nc3ccccc3[nH]2)ccc1[C@@H]1CC(=O)NS1(=O)=O

IC50 [2]: > 20000 nM
Structure (SMILES): CN(CCCCCl)P(=O)(OCc1ccc([N+](=O)[O-])o1)C(F)(F)c1ccc(CC(=O)N[C@@H](CC(=O)O)C(=O)N[C@@H](Cc2ccc(C(F)(F)P(=O)(OCc3ccc([N+](=O)[O-])o3)N(C)CCCCCl)cc2)C(=O)ON)cc1 (some centres undefined)

IC50 [2]: 2500 nM
Structure (SMILES): O=S(=O)(Nc1ccc(Oc2ccc(Oc3ccc(NS(=O)(=O)C(F)(F)F)cc3)cc2)cc1)C(F)(F)F

Ki [1]: 26 nM
Structure (SMILES): NC(=O)[C@H](Cc1ccc(C(F)(F)P(=O)(O)O)cc1)NC(=O)[C@H](CC(=O)O)NC(=O)Cc1ccc(C(F)(F)P(=O)(O)O)cc1

Ki [1]: 65 nM
Structure (SMILES): CCc1cc(C[C@H](NC(C)=O)C(=O)NCCCCOc2cccc(O)c2C(=O)OC)ccc1N(C(=O)C(=O)O)c1ccccc1C(=O)O
